Reference: patent publication US12697328B2, “Methods for treating metastasis with cathepsin C inhibitors” (Shanghai Institute of Nutrition and Health, Chinese Academy …, priority 2020, dated 2026)

Legend:
murine neutrophils = assay: Reactive oxygen species (ROS) analysis of neutrophils pre-treated with 4T07 conditioned medium; format: cell-based; details: 4T07 CM with CTSC overexpressed, inhibitors 10 μM, FIGS. 8C, 8E
Experimental: To measure the ROS levels, neutrophils were cultured in cancer cell CM or non-conditioned medium, and treated with DMSO or various inhibitors, including Sivelestat (10 μM), BAY11-7082 (10 μM) and SB203580 (10 μM) for 1 h at 37° C. Cells were then harvested and resuspended in assay buffer (PBS, 4 mM EGTA, pH 7.4, containing 10 μM CM-H2DCFDA, Invitrogen), incubated for 15 min at 37° C. in dark, washed with pre-chilled PBS, followed by FACS analysis within 30 min.
The release of reactive oxygen species (ROS) by neutrophils is known to induce NET formation. […] Commum. 6, 6673 (2015).
ROS analysis of murine neutrophils pre-treated with 4T07 conditioned medium show increased ROS production results from CTSC overexpression (FIG. 8E).

[1] = system: SCP28 cells overexpressing CTSC; assay: Mice injected with CTSC-overexpressed SCP28 cells, treated with Sivelestat or DNase I; format: in vivo
Experimental: Female BALB/c and athymic mice aged 6-10 weeks were used in all animal experiments. Orthotropic and intravenous injection were performed as previously described (Zhuang et al., “Differential effects on lung and bone metastasis of breast cancer by Wnt signalling inhibitor DKK1,” Nat. Cell Biol. 19:1274-1285 (2017)). For EdU labeling assays, nude mice were intravenously injected with 2×10^5 cancer cells, followed by intraperitoneal (i.p.) injection of 100 ng/mouse EdU (ThermoFisher, C10640) 24 h before lung harvest. For neutrophil depletion assays, mice received 2 initial i.p. injection (200 μg/mouse) of 1A8 Ly6G antibody (BE0075-1, BioXCel) or rat IgG control (14131, Sigma) every 3 days before cancer cell injection and then maintenance injection twice a week after cancer cell injection. For Sivelestat or DNase I treatment, mice were i.p. injected with Sivelestat (50 mg/kg) or DNase I (5 mg/kg) 2 h before cancer cell injection, followed by daily injection of the reagents for 9 days, and then maintenance shots twice a week. For GSK484 treatment, mice were treated with GSK484 (20 mg/kg, i.p. daily shots for 20 days from day 7, and then maintenance shots every two days) following orthotopic injection of AT3 or 4T07 cells. For IL-1b blocking or IL6R/CCR1 inhibition assays, mice were orthotopically inoculated with 5×10^4 AT3 and treated with i.p. administration of IgG or the IL-1β blocking antibody (100 μg per mouse), or the IL6R blocking antibody (100 μg per mouse) and the CCR1 inhibitor BX471 (20 mg/kg), every two days from day 7 until the mice were sacrificed. For brensocatib treatment, BALB/c mice were orthotopically inoculated with 1×10^5 4T1 cells, and C57/BL6 mice were orthotopically inoculated with 2×10^5 AT3. […]
The number of myeloperoxidase-positive neutrophils around GFP^+ cancer cells in the lungs of mice 72 h after injection with CTSC-overexpressed SCP28 is quantified by immunostaining of the lung tissue. […]

liver cancer cells HUH7 = assay: Mouse xenograft, liver tumor cells by spleen injection; format: in vivo; details: nude mice
Experimental: A series of mouse xenograft studies are conducted by injecting liver and pancreatic tumor cells into nude mice by spleen injection. Then the mice are treated by brensocatib, and the growth of the tumors in liver is observed.

CTSC = target: T1, CTSC (Homo sapiens, UniProt P53634); assay: CTSC protein expression in metastatic tumor cells; format: cell-based; details: a number of metastatic tumor cell types treated with brensocatib; FIGS. 11A-C
T1 construct: The CTSC protein secretion level in tumor cells with different capabilities of metastasis to various target organs; endogenous in cells; host or cells: metastatic breast cancer cells (MDA-MB-231, SP16, SP16L; bone-metastatic lines) and bone-metastatic lung cancer cells
Experimental: Cultured cells were collected by scraper or trypsinized and then lysed with lysis buffer (50 mM Tris-HCl, 150 mM NaCl, 1% NP-40 detergent, 0.5% sodium deoxycholate, 0.1% SDS with phosphatase and protease inhibitors), and dispersed tissue were homogenized in RIPA buffer on ice for 15 min, followed by centrifugation at 17,000 g for 15 min. The protein concentration was measured with a BCA Protein Assay Kit. Proteins of 10 μg, 80 μg, 30 μg were loaded for membrane proteins, IL-1β processing, p65 phosphorylation and the other assays, respectively, and separated on 8-12% SDS-polyacrylamide gel. For cancer cell conditioned medium (CM) collection, cells were grown to ~80% confluence in 10 cm culture dishes. After three times washing with serum-free medium at 37° C., the cells were incubated in serum-free medium at 37° C. for 24 h. The CM were collected, centrifuged at 2,000 g for 10 min, filtrated by 0.22 μm filters, stored at −80° C. until used. The secreted proteins in CM were collected by TCA precipitation. Briefly, 25% v/v TCA was added into 1 ml CM with phosphatase and protease inhibitors, incubated overnight at 4° C., and then centrifuged at 20,000 g for 60 min, after which the supernatant was discarded and the pellet was washed twice with 1 ml pre-chilled acetone, centrifuged again at 20,000 g for 5 min at 4° C. […]

4T1 cells = assay: Brensocatib treatment of mice after fat pad injection of 4T1 cells (lung metastasis of breast cancer); format: in vivo, BALB/c mice; details: brensocatib 5 mg/kg orally twice daily
Experimental: Female BALB/c and athymic mice aged 6-10 weeks were used in all animal experiments. Orthotropic and intravenous injection were performed as previously described (Zhuang et al., “Differential effects on lung and bone metastasis of breast cancer by Wnt signalling inhibitor DKK1,” Nat. Cell Biol. 19:1274-1285 (2017)). For EdU labeling assays, nude mice were intravenously injected with 2×10^5 cancer cells, followed by intraperitoneal (i.p.) injection of 100 ng/mouse EdU (ThermoFisher, C10640) 24 h before lung harvest. For neutrophil depletion assays, mice received 2 initial i.p. injection (200 μg/mouse) of 1A8 Ly6G antibody (BE0075-1, BioXCel) or rat IgG control (14131, Sigma) every 3 days before cancer cell injection and then maintenance injection twice a week after cancer cell injection. For Sivelestat or DNase I treatment, mice were i.p. injected with Sivelestat (50 mg/kg) or DNase I (5 mg/kg) 2 h before cancer cell injection, followed by daily injection of the reagents for 9 days, and then maintenance shots twice a week. For GSK484 treatment, mice were treated with GSK484 (20 mg/kg, i.p. daily shots for 20 days from day 7, and then maintenance shots every two days) following orthotopic injection of AT3 or 4T07 cells. For IL-1b blocking or IL6R/CCR1 inhibition assays, mice were orthotopically inoculated with 5×10^4 AT3 and treated with i.p. administration of IgG or the IL-1β blocking antibody (100 μg per mouse), or the IL6R blocking antibody (100 μg per mouse) and the CCR1 inhibitor BX471 (20 mg/kg), every two days from day 7 until the mice were sacrificed. For brensocatib treatment, BALB/c mice were orthotopically inoculated with 1×10^5 4T1 cells, and C57/BL6 mice were orthotopically inoculated with 2×10^5 AT3. Vehicle controls (0.5% HPMC, 0.1% Tween 80 in 0.1 M citrate buffer, pH 3) and brensocatib (5 mg/kg) were administered orally twice daily until the mice were sacrificed. Orthotopic tumors were surgically removed at the size of about 1 cm^3. Recombinant human active PR3 treatment (1.5 mg/kg) was administrated intravenously daily after intravenous inoculation of […] LM2 cells. For TSP-1 degradation assays, mice were i.p. injected with GSK484 (20 mg/kg) 2 h before cancer cell injection and followed by daily treatment. Then, the lungs were perfused with 50 ml of pre-chilled PBS through the right ventricle until they were cleared of blood at 72 h post injection of 3×10^6 AT3 or 4T07 cells. BLI was acquired with NightOWL II LB983 Imaging System (Bert-hold) and IVIS Spectrum CT (PerkinElmer). All animal studies were conducted according to the guidelines for the care and use of laboratory animals and were approved by the Institutional Animal Care and Use Committee of Shanghai Institute of Nutrition and Health.
The use of CTSC inhibitors to treat lung metastasis of breast cancer is investigated. Brensocatib (also known as AZD7986 or INS1007) is a CTSC-specific inhibitor used for treating Non-Cystic Fibrosis Bronchiectasis, and has currently entered Phase II clinical trials. See Doyle et aL, “Discovery of second generation reversible covalent DPP1 inhibitors leading to an oxazepane amidoacetonitrile based clinical candidate (AZD7986),” J. Med. Chem. 59:9457-9472 (2016). Brensocatib is administered to mice 7 days after the introduction of 4T1 cells via fat pad injection. A vehicle control group is also provided. Graphical data for change in tumor volume over time, numbers of pulmonary nodules formed, changes in mouse weight over time, and mouse survival rates, as well as the statistical diagram of the number of NETs in the lesions, are shown in FIGS. 10A-E. CTSC inhibitor brensocatib also suppresses the NETs-promoted tumor sphere formation of 4T1 cells (FIG. 10F).

T1 sequence (P53634 25-463): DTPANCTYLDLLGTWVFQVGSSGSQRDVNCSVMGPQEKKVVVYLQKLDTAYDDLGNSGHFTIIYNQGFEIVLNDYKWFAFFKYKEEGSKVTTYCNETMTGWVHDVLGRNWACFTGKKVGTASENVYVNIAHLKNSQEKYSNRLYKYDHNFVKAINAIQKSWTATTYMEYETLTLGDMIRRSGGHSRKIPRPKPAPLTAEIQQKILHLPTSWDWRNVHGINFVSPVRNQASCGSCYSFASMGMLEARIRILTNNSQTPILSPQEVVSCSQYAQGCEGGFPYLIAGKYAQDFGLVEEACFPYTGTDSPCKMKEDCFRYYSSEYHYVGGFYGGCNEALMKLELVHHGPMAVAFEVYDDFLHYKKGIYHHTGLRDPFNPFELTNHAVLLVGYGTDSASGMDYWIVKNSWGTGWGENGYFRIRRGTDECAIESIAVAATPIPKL

Row | Compound | ROS production / ROS levels (murine neutrophils) | neutrophil aggregation around cancer cells in the lungs ([1]; 7 weeks post-injection, FIG. 7G) | neutrophil aggregation around cancer cells in the lungs ([1]; 72 h after injection, Sivelestat 50 mg/kg i.p., FIG. 7F) | lung metastasis (BLI) ([1]; up to 8 weeks post-injection, Sivelestat 50 mg/kg or DNase I 5 mg/kg i.p., FIG. 8G) | formation of liver surface nodules (liver cancer cells HUH7; spleen injection of HUH7, FIG. 12B) | tumor growth of liver cancer cells HUH7 in liver (liver cancer cells HUH7; spleen injection, FIG. 12A) | CTSC protein expression (CTSC) | in situ tumor volume vs. time (primary tumor growth) (4T1 cells; from 7 days after 4T1 fat pad injection, vs untreated control, FIG. 10A) | formation of NETs in the lung metastatic lesions (4T1 cells; FIG. 10E) | pulmonary nodule formation (4T1 cells; vs untreated mice, FIG. 10B) | body weight decrease (4T1 cells; vs untreated mice, FIG. 10C) | survival rate (4T1 cells; vs untreated mice, FIG. 10D) | neutrophil infiltration in the pulmonary lesions (4T1 cells; vs untreated mice, FIG. 10E)
1 | CC(C)(C)C(=O)Oc1ccc(S(=O)(=O)Nc2ccccc2C(=O)NCC(=O)O)cc1 [Silvelestat] | blocks | persist through 7 weeks post-injection | decreases | suppressed |  |  |  |  |  |  |  |  | 
2 | Cn1c(=O)oc2ccc(-c3ccc(C[C@@H](C#N)NC(=O)[C@@H]4CNCCCO4)cc3)cc21 [brensocatib, (2S)—N-{(1S)-1-cyano-2-[4-(3-methyl-2-oxo-2,3-dihydro-1,3-benzoxazol-5-yl)phenyl]ethyl}-1,4-oxazepane-2-carboxamide] |  |  |  |  | suppresses | significantly inhibits tumor growth | significantly reduced | does not affect primary tumor growth | significantly inhibits | significantly reduced | lower than untreated mice | significantly improves | reduced relative to untreated mice
